Target: T1, SARS-CoV-2 nsp3 (Twinstrep nsp3 (179-1329)-His); PLPro (Severe acute respiratory syndrome coronavirus 2, UniProt P0DTD1)
T1 construct: gene rep
Test: fluorescence, RLRGG-AMC cleavage
Format: biochemical
Text: fluorescence, RLRGG-AMC cleavage on SARS-CoV-2 nsp3 (Twinstrep nsp3 (179-1329)-His); PLPro

SMILES	IC50 [µM]
Cn1ccnc1-c1cn(CCCc2csc(N)n2)nn1 [compound 2, Compound 2]	> 100
O=C(O)c1cn(-c2cccc(C(F)(F)F)c2)nn1 [compound 1, Compound 1]	> 100
CC(=O)Nc1ccc(Sc2ccccc2C(=O)O)cn1 [compound 4, Compound 4]	> 100
COc1ccc(-n2cc(CNC(=O)c3cc[nH]n3)nn2)cc1 [compound 3, Compound 3]	> 100
